Assay results published in patent US20260027068A1, “METHODS OF ADM[…]-KETAMINE” (Perception Neuroscience, Inc., priority 2022, published 2026).

Assay: Systolic blood pressure (vital signs)
Method: The Investigational Medicinal Product (IMP) R(−)-ketamine hydrochloride in sterile water for intravenous injection was investigated as an […] treatment of TRD. The International Union of Pure and Applied Chemistry (IUPAC) name is of the IMP is (2R)-2-(2-chlorophenyl)-2-(methylamino)cyclohexan-1-one. Subjects received the solution at either 30 mg or 60 mg dose, or a placebo. The IMP or placebo was administered on Day 1 as a single IV infusion via an electronic infusion pump over 40 minutes. The duration of study participation for each subject was up to 29 days including a screening period, a 3-day in-clinic visit, and 2 follow-up visits. 101 subjects were enrolled in approximately 20 study centers in the EU and the US.
Tympanic or temporal temperature, heart rate, blood pressure (SBP/DBP), respiratory rate, and SpO2 were assessed. Blood pressure and pulse measurements will be assessed with a completely automated device while the subject is supine or semi-supine. Manual techniques will be used only if an automated device is not available. Blood pressure and pulse measurements should be preceded by at least 5 minutes of rest for the subject in a quiet setting without distractions (e.g., television, cell phones). An abnormal blood pressure value at screening may be repeated once after 5 minutes of relaxation to determine the subject's eligibility. Blood pressure was recorded using the same arm and position (supine or semi-supine) throughout the study, where possible. Vital signs (to be taken before blood collection for laboratory tests) consisted of 1 pulse and 3 blood pressure measurements (3 consecutive blood pressure readings will be recorded at intervals of at least 1 minute). The average of the 3 blood pressure readings was recorded in the CRF. A pulse oximeter was used to measure peripheral capillary oxygen saturation (SpO2) continuously from pre-dose until 4-hours post-dose. A pulse oximeter was clipped onto the finger or foot of the subject, and light will be sent through the finger or foot and measured on the other side.
In these tables, baseline value is defined as the last non-missing value prior to study drug administration.

CN[C@@]1(c2ccccc2Cl)CCCCC1=O.Cl [R(−)-ketamine, (2R)-2-(2-chlorophenyl)-2-(methylamino)cyclohexan-1-one]
Subjects with change from baseline systolic blood pressure >40 mmHg, number (30 mg): 0 n | Subjects with change from baseline systolic blood pressure >40 mmHg, percent (30 mg): 0.0% | Subjects with post-baseline systolic blood pressure >180 mmHg, number (30 mg): 0 n | Subjects with post-baseline systolic blood pressure >180 mmHg, percent (30 mg): 0.0% | Systolic blood pressure: Mean (30 mg, Day 1, 15 minutes): 116.8 mmHg | Systolic blood pressure: Median (30 mg, Day 1, 15 minutes): 119.0 mmHg | Systolic blood pressure: Mean (30 mg, Day 1, 40 minutes): 120.1 mmHg | Systolic blood pressure: Median (30 mg, Day 1, 40 minutes): 122.0 mmHg | Systolic blood pressure: Mean (30 mg, Day 1, 60 minutes): 117.7 mmHg | Systolic blood pressure: Median (30 mg, Day 1, 60 minutes): 119.5 mmHg | Systolic blood pressure: Mean (30 mg, Day 1, 2 hours): 118.7 mmHg | Systolic blood pressure: Median (30 mg, Day 1, 2 hours): 122.0 mmHg | Systolic blood pressure: Mean (30 mg, Day 1, 4 hours): 119.0 mmHg | Systolic blood pressure: Median (30 mg, Day 1, 4 hours): 120.0 mmHg | Systolic blood pressure: Mean (30 mg, Day 1, 6 hours): 118.0 mmHg | Systolic blood pressure: Median (30 mg, Day 1, 6 hours): 120.0 mmHg | Systolic blood pressure: Mean (30 mg, Day 2 - Discharge): 118.0 mmHg | Systolic blood pressure: Median (30 mg, Day 2 - Discharge): 120.0 mmHg | Systolic blood pressure: Mean (30 mg, Day 8): 119.2 mmHg | Systolic blood pressure: Median (30 mg, Day 8): 121.0 mmHg | Systolic blood pressure: Mean (30 mg, Day 15): 123.4 mmHg | Systolic blood pressure: Median (30 mg, Day 15): 122.0 mmHg | Systolic blood pressure: Change from Baseline, Mean (30 mg, to Day 1, 15 minutes): 1.2 mmHg | Systolic blood pressure: Change from Baseline, Median (30 mg, to Day 1, 15 minutes): −1.0 mmHg | Systolic blood pressure: Change from Baseline, Mean (30 mg, to Day 1, 40 minutes): 2.0 mmHg | Systolic blood pressure: Change from Baseline, Median (30 mg, to Day 1, 40 minutes): 0.0 mmHg | Systolic blood pressure: Change from Baseline, Mean (30 mg, to Day 1, 60 minutes): 2.4 mmHg | Systolic blood pressure: Change from Baseline, Median (30 mg, to Day 1, 60 minutes): 2.5 mmHg | Systolic blood pressure: Change from Baseline, Mean (30 mg, to Day 1, 2 hours): 0.6 mmHg | Systolic blood pressure: Change from Baseline, Median (30 mg, to Day 1, 2 hours): 0.0 mmHg | Systolic blood pressure: Change from Baseline, Mean (30 mg, to Day 1, 4 hours): 0.9 mmHg | Systolic blood pressure: Change from Baseline, Median (30 mg, to Day 1, 4 hours): −1.0 mmHg | Systolic blood pressure: Change from Baseline, Mean (30 mg, to Day 1, 6 hours): −0.1 mmHg | Systolic blood pressure: Change from Baseline, Median (30 mg, to Day 1, 6 hours): −2.0 mmHg | Systolic blood pressure: Change from Baseline, Mean (30 mg, to Day 2 - Discharge): −0.1 mmHg | Systolic blood pressure: Change from Baseline, Median (30 mg, to Day 2 - Discharge): −1.0 mmHg | Systolic blood pressure: Change from Baseline, Mean (30 mg, to Day 8): 1.2 mmHg | Systolic blood pressure: Change from Baseline, Median (30 mg, to Day 8): 1.0 mmHg | Systolic blood pressure: Change from Baseline, Mean (30 mg, to Day 15): 5.2 mmHg | Systolic blood pressure: Change from Baseline, Median (30 mg, to Day 15): 3.0 mmHg | Subjects with change from baseline systolic blood pressure >40 mmHg, number (60 mg): 1 n | Subjects with change from baseline systolic blood pressure >40 mmHg, percent (60 mg): 2.9% | Subjects with post-baseline systolic blood pressure >180 mmHg, number (60 mg): 0 n | Subjects with post-baseline systolic blood pressure >180 mmHg, percent (60 mg): 0.0% | Systolic blood pressure: Mean (60 mg, Day 1, 15 minutes): 123.6 mmHg | Systolic blood pressure: Median (60 mg, Day 1, 15 minutes): 124.5 mmHg | Systolic blood pressure: Mean (60 mg, Day 1, 40 minutes): 123.0 mmHg | Systolic blood pressure: Median (60 mg, Day 1, 40 minutes): 122.0 mmHg | Systolic blood pressure: Mean (60 mg, Day 1, 60 minutes): 123.9 mmHg | Systolic blood pressure: Median (60 mg, Day 1, 60 minutes): 124.0 mmHg | Systolic blood pressure: Mean (60 mg, Day 1, 2 hours): 119.0 mmHg | Systolic blood pressure: Median (60 mg, Day 1, 2 hours): 120.0 mmHg | Systolic blood pressure: Mean (60 mg, Day 1, 4 hours): 119.1 mmHg | Systolic blood pressure: Median (60 mg, Day 1, 4 hours): 121.0 mmHg | Systolic blood pressure: Mean (60 mg, Day 1, 6 hours): 119.7 mmHg | Systolic blood pressure: Median (60 mg, Day 1, 6 hours): 119.5 mmHg | Systolic blood pressure: Mean (60 mg, Day 2 - Discharge): 120.8 mmHg | Systolic blood pressure: Median (60 mg, Day 2 - Discharge): 122.0 mmHg | Systolic blood pressure: Mean (60 mg, Day 8): 123.2 mmHg | Systolic blood pressure: Median (60 mg, Day 8): 122.0 mmHg | Systolic blood pressure: Mean (60 mg, Day 15): 120.3 mmHg | Systolic blood pressure: Median (60 mg, Day 15): 121.0 mmHg | Systolic blood pressure: Change from Baseline, Mean (60 mg, to Day 1, 15 minutes): 4.4 mmHg | Systolic blood pressure: Change from Baseline, Median (60 mg, to Day 1, 15 minutes): 1.5 mmHg | Systolic blood pressure: Change from Baseline, Mean (60 mg, to Day 1, 40 minutes): 4.9 mmHg | Systolic blood pressure: Change from Baseline, Median (60 mg, to Day 1, 40 minutes): 3.0 mmHg | Systolic blood pressure: Change from Baseline, Mean (60 mg, to Day 1, 60 minutes): 5.3 mmHg | Systolic blood pressure: Change from Baseline, Median (60 mg, to Day 1, 60 minutes): 5.0 mmHg | Systolic blood pressure: Change from Baseline, Mean (60 mg, to Day 1, 2 hours): 0.9 mmHg | Systolic blood pressure: Change from Baseline, Median (60 mg, to Day 1, 2 hours): 1.0 mmHg | Systolic blood pressure: Change from Baseline, Mean (60 mg, to Day 1, 4 hours): 1.0 mmHg | Systolic blood pressure: Change from Baseline, Median (60 mg, to Day 1, 4 hours): 0.0 mmHg | Systolic blood pressure: Change from Baseline, Mean (60 mg, to Day 1, 6 hours): 1.4 mmHg | Systolic blood pressure: Change from Baseline, Median (60 mg, to Day 1, 6 hours): 2.0 mmHg | Systolic blood pressure: Change from Baseline, Mean (60 mg, to Day 2 - Discharge): 2.7 mmHg | Systolic blood pressure: Change from Baseline, Median (60 mg, to Day 2 - Discharge): 1.0 mmHg | Systolic blood pressure: Change from Baseline, Mean (60 mg, to Day 8): 5.0 mmHg | Systolic blood pressure: Change from Baseline, Median (60 mg, to Day 8): 2.0 mmHg | Systolic blood pressure: Change from Baseline, Mean (60 mg, to Day 15): 2.1 mmHg | Systolic blood pressure: Change from Baseline, Median (60 mg, to Day 15): 0.0 mmHg
